The text below walks through data of patent US11141389B2, “Agents that inhibit NGLY1 and methods of use thereof” (The Board of Trustees of the Leland Stanford Junior …, priority 2017, dated 2021).

Series [1] addresses T1, NGly1 (Homo sapiens, UniProt Q96IV0).
T1 sequence (Q96IV0 1-654): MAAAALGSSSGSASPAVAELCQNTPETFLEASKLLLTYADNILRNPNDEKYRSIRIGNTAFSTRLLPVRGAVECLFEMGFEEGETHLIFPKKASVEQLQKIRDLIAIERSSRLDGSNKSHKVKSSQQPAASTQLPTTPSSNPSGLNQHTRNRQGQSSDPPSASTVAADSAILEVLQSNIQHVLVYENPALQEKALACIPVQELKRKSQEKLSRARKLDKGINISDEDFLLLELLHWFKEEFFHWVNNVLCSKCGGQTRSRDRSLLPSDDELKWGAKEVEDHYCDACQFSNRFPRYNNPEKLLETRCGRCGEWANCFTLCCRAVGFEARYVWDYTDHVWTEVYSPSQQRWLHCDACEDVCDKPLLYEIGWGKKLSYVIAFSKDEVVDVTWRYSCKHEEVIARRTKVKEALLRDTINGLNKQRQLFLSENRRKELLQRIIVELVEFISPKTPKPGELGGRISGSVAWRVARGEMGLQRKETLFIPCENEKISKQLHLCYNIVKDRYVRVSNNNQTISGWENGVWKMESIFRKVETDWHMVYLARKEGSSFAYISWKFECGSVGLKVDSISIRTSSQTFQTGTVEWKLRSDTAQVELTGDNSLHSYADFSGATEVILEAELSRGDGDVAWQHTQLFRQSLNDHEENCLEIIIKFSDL
Kind of series: Cresswell assay (ddVenus fluorescence on deglycosylation by NGly1) in stably transfected K562 cells. The format is cell-based. Details: endogenous in cells; host or cells: K562 cells stably transfected with the ddVenus reporter. Particulars: for pIC50: K562 ddVenus cells, read-out: IC50 (reduction of fluorescence). An excerpt: The assay used was a modified version of the fluorimetric assay first described by the Cresswell lab in 2011. Prepared by the Steinmetz lab, a stably transfected K562 cell line was used. Mutated to misfold and contain a site for N-glycosylation, the expressed ddVenus would only properly fold, and thus fluoresce, upon deglycosylation by NGly1 and concurrent conversion of the glycosylated asparagine residue to aspartic acid (FIG. 4A). Thus inhibition of NGly1 would not activate fluorescence in this assay. With this method a library of about 600 cysteine-protease inhibitor-like compounds were screened. Six hits were found, all of which were peptide-derived structures with an electrophilic warhead consisting of either a vinyl sulfone or epoxyketone (FIG. 4B).
Screen of ˜600 compounds with the Cresswell Assay. Screens were performed clear, V-bottom 96-well plates. Plates were prepared with negative control 2 μL DMSO (A1) and positive control 1 μL DMSO+1 μL 10 mM Z-VAD-fmk (final conc. 100 uM Z-VAD-fmk; A12-H12). Wells A2-A11 contained 1 μL DMSO, the remaining wells contained 1 μL of 1 mM stocks of compounds from the library.
100 μL of suspended K562 ddVenus cells were added to the plate at 1×10^6 cells/mL. Wells A1-A12 contained cells in growth media. The remaining wells contained cells in growth media supplemented 100 uM carfilzomib.
The mean of fluorescence in FL1 was plotted for each well.
Z-factor for the assay ranged between 0.38-0.85.

The test system of a further series is caspases 3/7. Description: Caspase 3/7 inhibition assay (Caspase-Glo, staurosporine-induced U266 cells). Format: cell-based. Particulars: staurosporine 1 μM, 8 hours. How it is done: We were further interested to see whether this molecule would also hit caspases, similar to the known Ngly1 inhibitor Z-VAD-fmk. […] Inhibition of caspases 3/7 was not observed until a concentration of about 10 μM was reached. In addition, the relative activity was not lowered below the range observed by induced apoptosis
Caspase 3/7 inhibition assay. 1 million U266 cells were suspended in 10 mL RPMI 15% BSA+PS, and plated into a flat-bottom, white-walled 96-well plate (100 μL per well). The plate was incubated at 37° C. overnight. The following day, cells were treated with staurosporine (apoptosis inducer, final concentration 1 μM), WRR139 or Z-VAD-fmk (at final concentrations shown) or DMSO to a final concentration of 2% DMSO (v/v) respectively. The plate was incubated for 8 hours at 37° C. Caspase-Glo kit reagent (company details) was prepared as per instruction from the manufacturer and after equilibration to 23° C. […] of the reagent was added to each well. […] Caspase inhibition was calculated by subtracting background (signal from media containing no cells) and comparison to signal from cells with induced apoptosis (staurosporine only).

In series [2] the target is T1, NGly1. Description: Gel shift of RNAse B exposed to recombinant Ngly1. Format: biochemical. Conditions: gel electrophoresis, in the presence of the compound. An excerpt:
To detect direct inhibition of NGly1 by WRR139, the mass shift of RNAse B exposed to recombinant Ngly1 was observed by gel electrophoresis. In the presence of Ngly1, RNAse B was fully converted from its glycosylated band at pXXX to a deglycosylated protein at pXXX (FIG. 4D).

Series [3] deals with Nrf1. Kind of series: Immunoblot of Nrf1 processing in Nrf1 overexpressing HEK cells. Format: cell-based, Human. Particulars: compound before carfilzomib. An excerpt:
In a second attempt, we used Nrf1 overexpressing HEK cells and applied the small molecule Z-VAD-fmk (FIG. 1B) to inhibit NGly1 before treating the cells with carfilzomib. […] The higher abundance of the p120 band indicates the existence of the N-glycosylated form of Nrf1 as the main species in cells treated with Z-VAD-fmk. […] Thus, the incorrect processing of Nrf1 that we observed in cells treated with Z-VAD-fmk results from inhibition of NGly1 and not from caspase inhibition.
Nrf-3× Flag overexpressing HEK cells (RDB-2867; a kind gift from Senthil Radhakrishnan, Virginia Commonwealth University) were obtained by cloning Human Nrf1 coding region along with a C-terminal 3× Flag sequence into pcDNA3.1+ (Invitrogen, Carlsbad, Calif.). Cells were grown in Dulbecco's modified Eagle's medium (DMEM) supplemented with 10% fetal bovine serum (Clontech Laboratories), penicillin, and streptomycin (Fisher Scientific) at 37° C. in 5% CO2.
Immunoblot Analysis. Cells were lysed in RIPA buffer (50 mM Tris [pH 7.4], 150 mM NaCl, 1% NP40, 1% Na. Deoxycholate, 0.1% SDS, and 1 mM EDTA) supplemented with protease and phosphatase inhibitor cocktail (Pierce). For detecting Nrf1 a rabbit monoclonal antibody raised against the N terminus (D5B10, Cell Signaling) was used. Other immunoblots were performed with antibodies specific for Flag tag (Sigma-Aldrich) and β-actin (Cell Signaling).
On the technique in general: A western blot detects proteins with antibodies after separation by electrophoresis.

Series [4] relates to multiple myeloma cell lines. Kind of series: Potentiation of proteasome inhibition in multiple myeloma cell lines. The format is cell-based. An excerpt:
Considering the effect of NGly1 KO or knockdown for proteasome inhibitor potentiation, we hoped to find the same effect through the use of a small molecule inhibitor of NGly1. Attempts to use Z-VAD-fmk to potentiate proteasome inhibition in multiple myeloma cell lines were unsuccessful, possibly due to its activity as a potent pan-caspase inhibitor.

In series [5] the test system is Nrf1. Description: 3xPSMA4-ARE dual luciferase reporter assay in Nrf1 overexpressing HEK cells. Particulars: compound prior to carfilzomib. The format is cell-based, Human. How it is done:
The same experiment was performed in Nrf1 overexpressing HEK cells in which NGly1 was inhibited by Z-VAD-fmk prior to incubation with carfilzomib. The caspase inhibitor QVD-OPh served as control to out rule that observed effect resulted from caspase inhibition.
(§1) Luciferase Assays. The construct 3xPSMA4-ARE-Luc (RDB-2415; a kind gift from Senthil Radhakrishnan, Virginia Commonwealth University) was described previously. Briefly, an oligo (5′-[…] […] […] […] […] […] […]-3′) (SEQ ID NO: 10) containing three copies of a putative ARE (shown in uppercase) derived from the first intron of the human PSMA4 gene was annealed to its corresponding reverse-complement oligo and cloned into pGL3-promoter vector (Promega). The promoter reporter was generated by inserting this construct upstream of a minimal SV40 promoter, driving the expression of a firefly luciferase.
Cells were transiently transfected with the firefly (promoter reporters) and renilla luciferase (pRL-TK; Promega) constructs along with effector plasmid as required. Cells were treated with compoubds or vehicle control for 12 hours. Afterwards cells were lysed in the luciferase assays were performed using the dual luciferase reporter assay system (E1910; Promega) according to the instructions from the manufacturer. The firefly luciferase activity was normalized to renilla luciferase activity for all experiments.
A general note: In a reporter assay the amount or activity of a reporter protein is the signal.

Series [6] has as its system Nrf1. Description: Confocal imaging of Nrf1 localization in Nrf1 overexpressing HEK cells. Format: cell-based, Human. An excerpt:
We further used confocal microscopy to visualize the localization of Nrf1 in MEFs and Nrf1 overexpressing HEK cells before and after treatment with carfilzomib (FIGS. 2B and C). In absence of carfilzomib Wt and NGly1^−/− MEFs show Nrf1 (in white) in low abundance and mainly in the cytosol (FIG. 2B). After treating the cells with carfilzomib for several hours, wt MEFs show Nrf1 in the nucleus whereas NGly1^−/− MEFs only show a higher abundance of Nrf1 in the cytosol. […] Untreated cells show Nrf1 mainly in the cytosol around the ER. […] Taking all the results in account we conclude that functioning NGly1 is required to activate Nrf1.
Immunofluorescence followed by confocal imaging. MEFs and Nrf-3× Flag overexpressing HEK cells were grown to 80% confluency on cover slips. Cells were treated with NGLy1-, caspase-, and proteasome inhibitors as indicated and allowed to recover in fresh media for one hour before cells were fixed using 100% ice cold methanol. Cells were treated with a primary rabbit monoclonal antibody raised against the N-terminus of Nrf1 (D5B10, Cell Signaling) and a secondary polyclonal Alexa Fluor0647 AffiniPure Fab Fragment Goat Anti-Rabbit IgG (H+L) (Jackson Immuno Research). […] Images were analyzed using Imaris analysis software (version). […]

The conditions of series [7]: patients; cited from earlier work.
A further series deals with MEF cells. Description: Viability of MEF NGly1-/- versus MEF WT with carfilzomib (WST-1). The format is cell-based, Mouse. Particulars: 24 h incubation, doses 5-100 nM. (Tetrazolium dyes change colour on reduction, which living cells bring about.)
A further series relates to Proteasome. Particulars: blood and PBMCs, cited from earlier work.
The test system of another series is K562 cells. Description: Carfilzomib sensitivity of CRISPRi-knockdown K562 cell lines. The format is cell-based.
The test system of series [8] is Nrf1. Kind of series: 3xPSMA4-ARE dual luciferase reporter assay in MEFs. The format is cell-based, Mouse. Particulars: 12 hour incubation.
Description: According to the theory the active form (p110) of Nrf1 that translocates to the nucleus and activates proteasome genes, is produced upon removal of the N-glycans. Using a construct in which three copies of the antioxidant respond element (ARE) of the human PSMA4 gene were inserted upstream of a SV40 promoter that drives the expression of firefly luciferase in a dual luciferase reporter assay, where plasmids expressing renilla luciferase were used as internal transfection control, we compared the reporter activity in NGly1^−/− MEFs and Wt MEFs after treatment with carfilzomib.
as §1
Cells were transiently transfected with the firefly (promoter reporters) and renilla luciferase (pRL-TK; Promega) constructs along with effector plasmid as required. […]

pIC50: −log10 of the molar value. Read-outs that look alike come from different tables or passages of the source. Residues, ends and D or L forms follow the SMILES beside them. *: point of attachment. Cbz = O=C(OCc1ccccc1)*; CH2F = FC*

What is called pIC50 is −log10 of the IC50, conventionally taken in molar units.

Description for H929 cells: Cell survival experiments using the Cell Titer-Glo 2.0 assay were performed in opaque white flat-bottomed 96-well plates. The cells (1.0-2.0×10^4 in 100 μL fresh media) were treated under the desired conditions and incubated for 24 or 48 h before addition of 100 μL assay reagent. Viability was calculated as percent signal compared to vehicle treated cells. Regression analysis and IC50 calculations were performed with GraphPad Prism 7.0.
U266 and H929: U266 or H929 cells were seeded at a density of 0.1 million cells/mL in RPMI medium (100 μL per well). The following day, carfilzomib, DMSO, or WRR139 were added in DMSO to final concentrations as shown for a maximum final concentration of 1% DMSO (v/v). After 48 h of incubation at 37° C. with 5% CO2, the plate was retrieved and treated with the Cell Titer-Glo 2.0 assay. After 10 minutes incubation the plate was analyzed by measuring the luminescence using a Spectra max®i3x (VWR, Australia) plate reader.

Regarding `Cc1ccc(S(=O)(=O)/C=C/C(=O)N[C@@H](CCc2ccccc2)C(=O)NCCC(C)C)cc1` [WRR139], the “NGly1 inhibition in validation of the hits” value on NGly1 [1] (FIG. 4C) is “inhibit NGly1 in a dose-dependent manner”. At NGly1 [1], the pIC50 is 5.26. The “increase in killing / reduction of LD50 of carfilzomib” value with H929 cells (H929, WRR139 plus carfilzomib vs carfilzomib alone) was found to be 2 fold; in the series with U266 cells (U266, WRR139 plus carfilzomib vs carfilzomib alone), 2.6 fold. Besides, the “cell survival, co-inhibition with carfilzomib compared to carfilzomib alone” value in the series on H929 cells (H929, after 24 hours) is listed as “significantly decreased cell survival”; in the series on U266 cells (U266, after 24 hours), “significantly decreased cell survival”. In addition, in the series on caspases 3/7, the “concentration at which inhibition of caspases 3/7 is first observed” value was “about 10 μM”. The “deglycosylation of RNAse B by recombinant Ngly1” value on NGly1 [2] is listed as “only the original band remains, with no conversion to the deglycosylated form”.
For `COC(=O)C[C@H](NC(=O)[C@H](C)NC(=O)[C@@H](NC(=O)OCc1ccccc1)C(C)C)C(=O)CF` [Z-VAD-fmk, carbobenzoxy-valyl-alanyl-aspartyl-[O-methyl]-fluoromethylketone] (Cbz-Val-Ala-Asp(OMe)-CH2F), the “Nrf1 processing (p120/p110 bands)” value in the series on Nrf1 [3] is reported as “abnormal processing of Nrf1”. For the same compound, the pIC50 at NGly1 [1] was 5.36. In series [4], the “potentiation of proteasome inhibition” value is “unsuccessful”. Moreover, in the series with Nrf1 [5], the reporter activity result is reported as “did not show an increased reporter activity”. In addition, the “deglycosylation of RNAse B by recombinant Ngly1” value on NGly1 [2] is given as “only the original band remains, with no conversion to the deglycosylated form”. In addition, the “localization of Nrf1” value with Nrf1 [6] (compound prior to incubation with carfilzomib) is listed as “high abundance of Nrf1 in the cytosol”.
`CC(C)C[C@H](NC(=O)[C@H](Cc1ccccc1)NC(=O)c1cnccn1)B(O)O` [bortezomib]: the incidence of neuropathy in series [7] is reported as 30-60%.
With `CC(C)C[C@H](NC(=O)[C@H](CCc1ccccc1)NC(=O)CN1CCOCC1)C(=O)N[C@@H](Cc1ccccc1)C(=O)N[C@@H](CC(C)C)C(=O)[C@@]1(C)CO1` [carfilzomib], the “sensitivity of NGly1-/- cells relative to MEF WT” value in the series with MEF cells is on record as “over 2 fold”. Also, the “inhibition of proteasome activity” value is recorded as above 75% in the series with Proteasome (15 mg/m^2, after the first dose) and above 90% with Proteasome (after five doses). For the same compound, the LD50 with K562 cells (K562, dCAS9 knockdowns of Nrf1 or NGly1 (sgNrf1-A, sgNrf1-B, sgNGly1)) was 20 nM; in the series on K562 cells (K562, no sgRNA or control sgRNA), 40 nM. In addition, the “reporter (PSM) activity” value in the series with Nrf1 [8] (NGly1-/- MEFs) is “no response”; with Nrf1 [8] (Wt MEFs) it was “increase in PSM activity”. Also, the “localization of Nrf1” value in the series on Nrf1 [6] (carfilzomib alone) is reported as “the majority of Nrf1 was observed in the nucleus”.
